# Measurements reported in patent US20240277695A1, “FOXO INHIBITORS FOR USE IN THE TREATMENT OF DISEASES CAUSED BY ABNORMAL PROCESSING OF TDP-43 AND/OR FUS PROTEINS” (Administración General de la Comunidad Autónoma de Euskadi, priority 2020, published 2024).
# Entries after “also recorded” stand apart in the source; their conditions may differ.
# What was measured:
# [1] = test system: shTDP-43-treated myoblasts; assay: Glu/Asp and Glu/Gln metabolite ratios by HPLC-MS and 1H-NMR in silenced myoblasts; assay type: cell-based, human; conditions: 30 nM
# From the text: One of the key endogenous factors that keep glycolytic flux ongoing is cytosolic NAD^+. In anaerobic muscles, malate-aspartate and glycerol-phosphate shuttles as well as glutaminolysis are main metabolic pathways that recycle cytosolic NAD+to support glycolysis (FIG. 3A). […] With respect malate-aspartate shuttle and glutaminolysis, TDP-43 silencing led to reduced levels of OGC1 (oxoglutarate carrier 1), GOT1 (glutamic-oxaloacetic transaminase), MDH1 (malate dehydrogenase), and ME1 (malic enzyme), but increased levels of glutaminase (FIG. 3B). […] We have also analyzed intermediate metabolites of malate-aspartate shuttle and glutaminolysis, including glutamate (Glu), glutamine (Gln) and aspartate (Asp), by means of HPLC-MS and ^1H-NMR, and calculated the ratios Glu/Asp and Glu/Gln to estimate fluxes of these reactions. […] In this sense, an abnormal glutaminolysis may account for the defects of NAD^+ recycling in FUS-silenced myoblasts.
# We next explored the consequences of pharmacological or genetic inhibition of FoxO on metabolism and myogenesis in TDP-43 and FUS-silenced myoblasts. We treated all the different models of myoblasts with the compound AS1842856 at 30 nM during proliferation and let them differentiate, adding the compound at the same concentration every 2 days for 8 days. […]
# [2] = test system: TDP-43 or FUS-silenced human immortalized myoblasts (cell line 8220); assay: Myogenic differentiation (MYHC-positive myotubes, differentiation index) of silenced myoblasts; assay type: cell-based; conditions: 30 nM
# From the text: We then studied the effect of gene silencing on the myogenic process. Myogenesis was first induced by an established protocol consisting on medium replacement, in which myoblasts were exposed to differentiation medium two days after infection with lentiviral particles. However, TDP-43 and FUS knockdown myoblasts were not able to survive to the differentiating challenge. Then, we switched to a more physiologically-relevant myogenic scenario that consists on allowing spontaneous differentiation and fusion when myoblasts reach 100% confluence. Lentiviral particles of scramble shRNA, shTDP-43 or shFUS were added to the medium when […] myoblasts were at 30-40% confluence (FIG. 1D).
# (§1) Myoblasts treated with control shRNA differentiated and formed MYHC-positive myotubes 2 days after reaching 100% confluence (FIG. 1I). However, TDP-43 and FUS knockdown affected the natural capacity of cultured myoblasts to fuse and form myotubes: shTDP-43-treated myoblasts remained undifferentiated for at least 2 days after reaching 100% confluence, and shFUS-treated myoblasts formed fewer myotubes (FIG. 1I). […] We then analyzed levels of MYOD and MYOG (Myogenin), two transcription factors that are required for myoblast commitment, differentiation and fusion, respectively.
# We next explored the consequences of pharmacological or genetic inhibition of FoxO on metabolism and myogenesis in TDP-43 and FUS-silenced myoblasts. We treated all the different models of myoblasts with the compound AS1842856 at 30 nM during proliferation and let them differentiate, adding the compound at the same concentration every 2 days for 8 days. At the selected concentration, this compound binds selectively to the dephosphorylated FoxO1, and to less extent dephosphorylated FoxO3, interfering with DNA interaction and thereby resulting in inhibition of FoxO transactivation.
# (§2) In addition, treatment with the AS1842856 inhibitor modifies the expression of some of the FoxO-regulated genes that are crucial for proper myogenic differentiation.
# [3] = test system: MYOD; assay: MYOD expression in silenced myoblasts; assay type: cell-based, human; conditions: 30 nM; shTDP-43 and shFUS-treated myoblasts
# From the text: as §1, §2
# [4] = test system: primary myoblasts from patients with ALS; assay: Myogenic capacity of primary myoblasts from patients with ALS; assay type: cell-based, human; conditions: 30 nM; primary myoblasts from sporadic and familial ALS patients
# From the text: (§3) We looked at preliminary links between the findings in genetically-induced myoblasts and features of myoblasts from patients with ALS. To this aim, we cultured primary myoblasts obtained from muscle biopsies of two patients with ALS (patient 1 is sporadic [sALS] and patient 2 is familial [fALS]) and one control. […] Changes in TDP-43 localization were accompanied by an altered subcellular distribution of FoxO1, as reflected by increased levels of FoxO1 and FoxO3 in nuclei (FIG. 6A,C) and enhanced nuclear-to-cytosolic ratio in both patients (FIG. 6C). Remarkably, nuclear localizations of TDP-43 and FoxO1 were inversely associated in patient 2 (FIG. 6D).
# To study whether these pathological features were linked to functional outcomes of ALS muscle, we studied the myogenic capacity of ALS myoblasts and the effect of FoxO inhibition.
# [5] = test system: primary ALS myoblasts; assay: Glycolytic flux (ECAR) of primary ALS myoblasts; assay type: cell-based, human
# From the text: as §3
# As expected, alterations of FoxO1 in ALS myoblasts were accompanied by aberrant glycolytic flux, as indicated by lower ECAR values after addition of glucose to the media (FIG. 6F).
# [6] = test system: Drosophila flies with muscle-conditioned silencing of Caz or Tbph; assay: Climbing (locomotor activity) test in flies with muscle-conditioned silencing of Caz or Tbph; assay type: in vivo, Drosophila melanogaster; conditions: 30 μM; Caz- and Tbph-silenced flies; more pronounced in Tbph lines
# From the text: FIG. 7. Foxo inhibition improves muscle function and lifespan in Drosophila flies with muscle-conditioned deficiency of TDP-43 or FUS. […] F, Caz or Tbph-silenced flies have reduced survival times, as indicated by Kaplan-Meier curves (left panel) and median lifespan (right panel) (n=100 flies per group). […] This effect was particularly noticeable in iCaz and iTbph^attp40) fly lines (n=100 flies per group). *p<0.05: **p<0.01, ***p<0.001.
# After knowing that FoxO inhibition provides benefits to muscle cells in vitro, we wanted to further test the effects of targeting FoxO factors on muscle function under the context of TDP-43 or FUS loss-of-function in vivo. To that purpose, we generated various Drosophilamodels with muscle-conditioned silencing of either Cabeza (Caz) or Tbph genes, which are orthologs of human FUS or TARDBP, respectively. […] Drosophila has only one ortholog for mammalian FoxO factors, which is called foxo. Although the affinity of AS1842856 for Drosophila foxo has never been tested, the fact that FoxO DNA-binding sites, with which the inhibitor interacts, are well conserved among species, including Drosophila melanogaster (FIG. 7B) provides enough rationale to test its efficacy in Drosophila models.
# [7] = test system: iTbph^pkk(108254) Drosophila model; assay: Adult pharate lethality / pupa eclosion assay; assay type: in vivo; conditions: 30 μM
# Method: FIG. 8. […] A) Number of total pupas and the eclosioned ones were counted in different 5 tubes each group. […] T-test was performed ***p<0,001. Values are expressed as percentage mean+SD.
# As mentioned in Example 6, iTbph^pkk(108254) Drosophila completed the metamorphosis from larvae to adult within the pupa (a phase known as pharate), but were not able to eclode from the pupa and, consequently, died. This feature is termed as adult pharate lethality and allowed us to perform assays with which to judge the efficacy of FoxO inhibition.
smiles,measurement,setting,value
CCn1cc(C(=O)O)c(=O)c2c(N)c(F)c(NC3CCCCC3)cc21 [AS1842856],Glu/Asp ratio,[1],increase Glu/Asp ratio to the levels of control myoblasts
same,Glu/Gln ratio,[1],without affecting Glu/Gln ratio
same,"myogenic capacity (MYHC-positive myotubes, differentiation index)",[2]; FUS-silenced myoblasts,improved the myogenic capacity
same,"myogenic capacity (MYHC-positive myotubes, differentiation index)",[2]; TDP-43 silenced myoblasts,rescued the myogenic arrest
same,"myogenic capacity (MYHC-positive myotubes, differentiation index)",[2]; control myoblasts,little effects
same,expression of MYOD,[3],increased the expression of MYOD
same,myogenic abnormalities,[4],alleviated
same,basal glycolysis rate (ECAR after glucose),[5],corrected; also recorded: improved the basal glycolysis rate
same,muscle function (climbing activity),[6],strong benefits on muscle function
same,eclosion efficiency of pupas,[7]; UAS-Dicer2-iTbph^pkk(108254)-Mef2-GAL4,significantly ameliorates
same,pharate lethality in control flies,[7]; control flies,did not produce pharate lethality
same,mitigation of pharate lethality,[7]; iTbph^pkk(108254) Drosophila,approximately 20%
